Test system: supercoiled pT75
Assay: Transcript elongation rate in 3 rNTP + 1 dNTP reactions
Assay type: biochemical
Procedure: Elongation rate determinations were carried out as described (Golomb and Chamberlin, 1974) with some variations (Bonner, et al., 1994).
Elongation rates of Y639F in reactions containing a single dNTP: Elongation rates for Y639F in reactions with 4 rNTPs or 1 dNTP and 3 rNTPs were determined by analyzing aliquots, taken at 10 second intervals, from transcription reactions initiated on supercoiled PT75 by adding NTPs to otherwise complete reaction mixes (FIG. 6).
The template was supercoiled pT75 at 5×10^-7 M. Y639F polymerase was used at a concentration of 10^-6 M. Reactions contained the indicated NTPs. Labeling was with α-P32-rATP (lane e) or α-P32-rGTP (other lanes). After initiation of the reactions aliquots were taken at 10 second intervals and analyzed on 1% agarose denaturing-formaldehyde gels. […] The bars indicate the positions of λ DNA markers.
When analyzed on denaturing agarose gels (FIG. 6) the heterogeneously sized transcripts from these reactions are resolved as a smear with the trailing edge of the smear corresponding to transcripts initiated at t=0 and from which the maximal transcript elongation rate can be determined (Golomb and Chamberlin, 1974; Bonner, et al., 1994). The following elongation rate reductions (relative to a ‘4 rNTP’ reaction) were obtained for reactions containing a 3 rNTPS and 1 dNTP:dATP, ˜3-fold; dUTP, ˜2-fold; dGTP ˜1.5-fold; dCTP, 1-1.5-fold. Because of its poor activity in reactions with dNTPs it was difficult to determine the corresponding elongation rate reductions for the W.T. enzyme.

Y639F: T7 RNAP with wild-type tyrosine at position 639 substituted by phenylalanine
Elongation rate reduction relative to 4 rNTP reaction (3 rNTPs and dATP): ~3 fold
Elongation rate reduction relative to 4 rNTP reaction (3 rNTPs and dCTP): 1-1.5 fold
Elongation rate reduction relative to 4 rNTP reaction (3 rNTPs and dGTP): ~1.5 fold
Elongation rate reduction relative to 4 rNTP reaction (3 rNTPs and dUTP): ~2 fold
